Data as given in patent publication US20260295053A1, “COMPOUNDS FOR DEGRADATION AND INHIBITION OF KRAS (G12D) PROTEIN” (Shenzhen Ionova Life Science Co., Ltd., priority 2023, published 2026).

Tests used:
AsPC-1 cells = assay: AsPC-1 cell proliferation assay (CellTiter Glo); type: cell-based; settings: Homo sapiens, ASPC1, 144 h, 6 days
Outline: (§1)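 Proliferation IC50 comes from CellTiter Glo luminescence after 6 days' exposure of AsPC-1 (3,500 cells/well) to 1:3 dilutions from […] to 1.5 nM. KRAS G12D DC50 derives from in-cell immunofluorescence normalised to β-actin after 24 h treatment of near-confluent AsPC-1 cells over the same range.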

KRAS (G12D) = target: T1, KRAS (G12D) (Homo sapiens, UniProt P01116, G12D); assay: KRAS (G12D) cellular degradation assay in AsPC-1 cells; type: cell-based; settings: 24 hours, antibody fluorescence (Odyssey CLX), DC50 half-maximal degradation concentration
T1 construct: in-cell western with KRAS G12D antibody after 24 h
Outline: as §1

T1 sequence (P01116 1-188 isoform P01116-2 G12D): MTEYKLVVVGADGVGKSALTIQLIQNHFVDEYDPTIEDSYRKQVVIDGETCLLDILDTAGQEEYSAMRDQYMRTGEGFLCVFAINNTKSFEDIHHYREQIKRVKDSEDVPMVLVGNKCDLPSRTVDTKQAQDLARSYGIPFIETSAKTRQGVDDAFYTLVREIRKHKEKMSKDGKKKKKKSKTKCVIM

`CO[C@H]1C[C@@H](Oc2nc(N3C[C@@H]4C[C@H]3CN4)c3cc(C4CC4)c(-c4c(C)c(F)cc5[nH]ncc45)c(OCc4ccc(-c5cn([C@H](C(=O)N6C[C@H](O)C[C@H]6C(=O)N[C@@H](CO)c6ccc(-c7scnc7C)cc6)C(C)C)nn5)cc4)c3n2)C1` [Example 102, (2S,4R)-1-((2S)-2-(4-(4-(((4-((1S,4S)-2,5-diazabicyclo[2.2.1]heptan-2-yl)-6-cyclopropyl-7-(6-fluoro-5-methyl-1H-indazol-4-yl)-2-((1s,3R)-3-methoxycyclobutoxy)quinazolin-8-yl)oxy)methyl)phenyl)-1H-1,2,3-triazol-1-yl)-3-methylbutanoyl)-4-hydroxy-N—((R)-2-hydroxy-1-(4-(4-methylthiazol-5-yl)phenyl)ethyl)pyrrolidine-2-carboxamide] showed an IC50 (AsPC-1 cells) of under 10 nM and a DC50 (KRAS (G12D)) of under 10 nM.
`COC1CCC(Oc2nc(N3C[C@@H]4C[C@H]3CN4)c3cc(C4CC4)c(-c4c(C)c(F)c(F)c5[nH]ncc45)c(OCc4ccc(-c5cn([C@H](C(=O)N6C[C@H](O)C[C@H]6C(=O)N[C@@H](CO)c6ccc(-c7scnc7C)cc6)C(C)C)nn5)cc4)c3n2)CC1` (stereo partly drawn) [Example 103, (2S,4R)-1-((2S)-2-(4-(4-(((4-((1S,4S)-2,5-diazabicyclo[2.2.1]heptan-2-yl)-6-cyclopropyl-7-(6,7-difluoro-5-methyl-1H-indazol-4-yl)-2-(((1s,4R)-4-methoxycyclohexyl)oxy)quinazolin-8-yl)oxy)methyl)phenyl)-1H-1,2,3-triazol-1-yl)-3-methylbutanoyl)-4-hydroxy-N—((R)-2-hydroxy-1-(4-(4-methylthiazol-5-yl)phenyl)ethyl)pyrrolidine-2-carboxamide] gave an IC50 (AsPC-1 cells) of under 10 nM and a DC50 (KRAS (G12D)) of 10 to 100 nM.
`CCn1nccc1-c1ccc([C@H](CO)NC(=O)[C@@H]2C[C@@H](O)CN2C(=O)[C@H](C(C)C)n2cc(-c3ccc(COc4c(-c5c(C)c(F)cc6[nH]ncc56)c(C5CC5)cc5c(N6C[C@@H]7C[C@H]6CN7)nc(OC6CC7COCC7C6)nc45)cc3)nn2)cc1` (stereo partly drawn) [Example 104, (2S,4R)-1-((2S)-2-(4-(4-(((4-((1S,4S)-2,5-diazabicyclo[2.2.1]heptan-2-yl)-6-cyclopropyl-7-(6-fluoro-5-methyl-1H-indazol-4-yl)-2-((hexahydro-1H-cyclopenta[c]furan-5-yl)oxy)quinazolin-8-yl)oxy)methyl)phenyl)-1H-1,2,3-triazol-1-yl)-3-methylbutanoyl)-N—((R)-1-(4-(1-ethyl-1H-pyrazol-5-yl)phenyl)-2-hydroxyethyl)-4-hydroxypyrrolidine-2-carboxamide] gave an IC50 (AsPC-1 cells) of under 10 nM and a DC50 (KRAS (G12D)) of under 10 nM.
`CCn1nccc1-c1ccc([C@H](CO)NC(=O)[C@@H]2C[C@@H](O)CN2C(=O)[C@H](C(C)C)n2cc(-c3ccc(COc4c(-c5c(C)c(F)cc6[nH]ncc56)c(C5CC5)cc5c(N6C[C@@H]7C[C@H]6CN7)nc(OC6CC7(CCOCC7)C6)nc45)cc3)nn2)cc1` [Example 105, (2S,4R)-1-((2S)-2-(4-(4-(((2-((7-oxaspiro[3.5]nonan-2-yl)oxy)-4-((1S,4S)-2,5-diazabicyclo[2.2.1]heptan-2-yl)-6-cyclopropyl-7-(6-fluoro-5-methyl-1H-indazol-4-yl)quinazolin-8-yl)oxy)methyl)phenyl)-1H-1,2,3-triazol-1-yl)-3-methylbutanoyl)-N—((R)-1-(4-(1-ethyl-1H-pyrazol-5-yl)phenyl)-2-hydroxyethyl)-4-hydroxypyrrolidine-2-carboxamide] gave an IC50 (AsPC-1 cells) of under 10 nM and a DC50 (KRAS (G12D)) of under 10 nM.
Work on `CCn1nccc1-c1ccc([C@H](CO)NC(=O)[C@@H]2C[C@@H](O)CN2C(=O)[C@H](C(C)C)n2cc(-c3ccc(COc4c(-c5c(C)c(F)cc6[nH]ncc56)c(C5CC5)cc5c(N6CCCNCC6)nc(OC[C@H](C)OC)nc45)cc3)nn2)cc1` [Example 107, (2S,4R)-1-((2S)-2-(4-(4-(((6-cyclopropyl-4-(1,4-diazepan-1-yl)-7-(6-fluoro-5-methyl-1H-indazol-4-yl)-2-((S)-2-methoxypropoxy)quinazolin-8-yl)oxy)methyl)phenyl)-1H-1,2,3-triazol-1-yl)-3-methylbutanoyl)-N—((R)-1-(4-(1-ethyl-1H-pyrazol-5-yl)phenyl)-2-hydroxyethyl)-4-hydroxypyrrolidine-2-carboxamide] yielded an IC50 (AsPC-1 cells) of under 10 nM and a DC50 (KRAS (G12D)) of under 10 nM.
`CCn1nccc1-c1ccc([C@@H](NC(=O)[C@@H]2C[C@@H](O)CN2C(=O)[C@H](C(C)C)n2cc(-c3ccc(COc4c(-c5c(C)c(F)cc6[nH]ncc56)c(C5CC5)cc5c(N6C[C@@H]7C[C@H]6CN7)nc(O[C@H]6C[C@H](OC)C6)nc45)cc3)nn2)[C@H](C)O)cc1` [Example 109, (2S,4R)-1-((2S)-2-(4-(4-(((4-((1S,4S)-2,5-diazabicyclo[2.2.1]heptan-2-yl)-6-cyclopropyl-7-(6-fluoro-5-methyl-1H-indazol-4-yl)-2-((1r,3S)-3-methoxycyclobutoxy)quinazolin-8-yl)oxy)methyl)phenyl)-1H-1,2,3-triazol-1-yl)-3-methylbutanoyl)-N-((1R,2S)-1-(4-(1-ethyl-1H-pyrazol-5-yl)phenyl)-2-hydroxypropyl)-4-hydroxypyrrolidine-2-carboxamide] showed an IC50 (AsPC-1 cells) of under 10 nM and a DC50 (KRAS (G12D)) of under 10 nM.
In the case of `CO[C@@H](C)COc1nc(N2C[C@@H]3C[C@H]2CN3)c2cc(C3CC3)c(-c3c(C)c(F)cc4[nH]ncc34)c(OCc3ccc(-c4cn([C@H](C(=O)N5C[C@H](O)C[C@H]5C(=O)N[C@H](C#Cc5ccc6nc(N)sc6c5)CO)C(C)C)nn4)cc3)c2n1` [Example 111, (2S,4R)-1-((2S)-2-(4-(4-(((4-((1S,4S)-2,5-diazabicyclo[2.2.1]heptan-2-yl)-6-cyclopropyl-7-(6-fluoro-5-methyl-1H-indazol-4-yl)-2-((S)-2-methoxypropoxy)quinazolin-8-yl)oxy)methyl)phenyl)-1H-1,2,3-triazol-1-yl)-3-methylbutanoyl)-N—((R)-4-(2-aminobenzo[d]thiazol-6-yl)-1-hydroxybut-3-yn-2-yl)-4-hydroxypyrrolidine-2-carboxamide], the IC50 (AsPC-1 cells) is reported as under 10 nM and the DC50 (KRAS (G12D)) is reported as under 10 nM.
`CCn1nccc1-c1ccc([C@H](CO)NC(=O)[C@@H]2C[C@@H](O)CN2C(=O)[C@H](C(C)C)n2cc(-c3ccc(COc4c(-c5c(C)c(F)cc6[nH]ncc56)c(C5CC5)cc5c(N6C[C@@H]7C[C@H]6CN7)nc(N6CCC(OC)C6)nc45)cc3)nn2)cc1` (stereo partly drawn) [Example 112, (2S,4R)-1-((2S)-2-(4-(4-(((4-((1S,4S)-2,5-diazabicyclo[2.2.1]heptan-2-yl)-6-cyclopropyl-7-(6-fluoro-5-methyl-1H-indazol-4-yl)-2-(3-methoxypyrrolidin-1-yl)quinazolin-8-yl)oxy)methyl)phenyl)-1H-1,2,3-triazol-1-yl)-3-methylbutanoyl)-N—((R)-1-(4-(1-ethyl-1H-pyrazol-5-yl)phenyl)-2-hydroxyethyl)-4-hydroxypyrrolidine-2-carboxamide] was tested, and the IC50 (AsPC-1 cells) was under 10 nM and the DC50 (KRAS (G12D)) was under 10 nM.
In the case of `CCn1nccc1-c1ccc([C@@H](NC(=O)[C@@H]2C[C@@H](O)CN2C(=O)[C@H](C(C)C)n2cc(-c3ccc(COc4c(-c5c(C)c(F)cc6[nH]ncc56)c(C5CC5)cc5c(N6C[C@@H]7C[C@H]6CN7)nc(OC6CC7(CCOCC7)C6)nc45)cc3)nn2)[C@H](C)O)cc1` [Example 113, (2S,4R)-1-((2S)-2-(4-(4-(((2-((7-oxaspiro[3.5]nonan-2-yl)oxy)-4-((15,45)-2,5-diazabicyclo[2.2.1]heptan-2-yl)-6-cyclopropyl-7-(6-fluoro-5-methyl-1H-indazol-4-yl)quinazolin-8-yl)oxy)methyl)phenyl)-1H-1,2,3-triazol-1-yl)-3-methylbutanoyl)-N-((1R,2S)-1-(4-(1-ethyl-1H-pyrazol-5-yl)phenyl)-2-hydroxypropyl)-4-hydroxypyrrolidine-2-carboxamide], the IC50 (AsPC-1 cells) is reported as under 10 nM and the DC50 (KRAS (G12D)) is reported as under 10 nM.
Compound `CCn1nccc1-c1ccc([C@@H](NC(=O)[C@@H]2C[C@@H](O)CN2C(=O)[C@H](C(C)C)n2cc(-c3ccc(COc4c(-c5c(C)c(F)cc6[nH]ncc56)c(C5CC5)cc5c(N6C[C@@H]7C[C@H]6CN7)nc(OC6CC7(CCOC7)C6)nc45)cc3)nn2)[C@H](C)O)cc1` (stereo partly drawn) [Example 114, (2S,4R)-1-((2S)-2-(4-(4-(((2-((6-oxaspiro[3.4]octan-2-yl)oxy)-4-((1S,4S)-2,5-diazabicyclo[2.2.1]heptan-2-yl)-6-cyclopropyl-7-(6-fluoro-5-methyl-1H-indazol-4-yl)quinazolin-8-yl)oxy)methyl)phenyl)-1H-1,2,3-triazol-1-yl)-3-methylbutanoyl)-N-((1R,2S)-1-(4-(1-ethyl-1H-pyrazol-5-yl)phenyl)-2-hydroxypropyl)-4-hydroxypyrrolidine-2-carboxamide] has an IC50 (AsPC-1 cells) of under 10 nM and a DC50 (KRAS (G12D)) of under 10 nM.
`CCn1nccc1-c1ccc([C@@H](NC(=O)[C@@H]2C[C@@H](O)CN2C(=O)[C@H](C(C)C)n2cc(-c3ccc(COc4c(-c5c(C)c(F)cc6[nH]ncc56)c(C5CC5)cc5c(N6C[C@@H]7C[C@H]6CN7)nc(OC6CC7COCC7C6)nc45)cc3)nn2)[C@H](C)O)cc1` (stereo partly drawn) [Example 115, (2S,4R)-1-((2S)-2-(4-(4-(((4-((1S,4S)-2,5-diazabicyclo[2.2.1]heptan-2-yl)-6-cyclopropyl-7-(6-fluoro-5-methyl-1H-indazol-4-yl)-2-((hexahydro-1H-cyclopenta[c]furan-5-yl)oxy)quinazolin-8-yl)oxy)methyl)phenyl)-1H-1,2,3-triazol-1-yl)-3-methylbutanoyl)-N-((1R,2S)-1-(4-(1-ethyl-1H-pyrazol-5-yl)phenyl)-2-hydroxypropyl)-4-hydroxypyrrolidine-2-carboxamide] was tested, and the IC50 (AsPC-1 cells) was under 10 nM and the DC50 (KRAS (G12D)) was under 10 nM.
